Test results reported in patent US12187728B2 (Raze Therapeutics, Inc., priority 2015, dated 2025).

Molecular target: T1, Human MTHFD2 (Homo sapiens, UniProt P13995)
T1 construct: residues 36-350 in Uniport ID P13995; His6 (N); made in house; host or cells: E. coli
T1 sequence (P13995 36-350): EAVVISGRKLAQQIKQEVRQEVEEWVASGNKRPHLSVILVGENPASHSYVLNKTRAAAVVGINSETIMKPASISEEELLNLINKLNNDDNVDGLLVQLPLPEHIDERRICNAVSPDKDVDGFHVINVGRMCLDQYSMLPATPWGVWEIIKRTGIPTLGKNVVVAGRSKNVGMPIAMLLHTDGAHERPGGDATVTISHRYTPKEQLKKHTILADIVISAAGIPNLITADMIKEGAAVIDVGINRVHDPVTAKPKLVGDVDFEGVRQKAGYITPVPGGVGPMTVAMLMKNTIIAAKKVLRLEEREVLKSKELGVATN
Assay: MTHFD2 Activity Assay (dehydrogenase activity, diaphorase/resazurin coupled fluorescence)
Format: biochemical
Settings: inhibitory activity (IC50 and/or binding constant); 0.2 nM MTHFD2, 11 concentrations
Procedure, shortened: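 Steps: compound + 0.2 nM enzyme, 15 min, pH 8.0 Hepes buffer; add 70 μM CH2-THF, 1 mM NAD+, 100 μM resazurin, diaphorase; 30 min; quench with EDTA; read fluorescence. Data normalized to DMSO (100%) and no-enzyme (0%) wells.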

Compound | IC50 [nM]
Cn1c(C(N)c2ccccc2)nc2c1c(=O)n(Cc1cc3c(Cl)cccc3[nH]1)c(=O)n2C (stereo not drawn) [Example 411, 8-(amino(phenyl)methyl)-1-((4-chloro-1H-indol-2-yl)methyl)-3,7-dimethyl-1H-purine-2,6(3H,7H)-dione] | 10 to 1000
Cn1c(C(O)c2ccccc2)nc2c1c(=O)n(Cc1cc3c(Cl)cccc3[nH]1)c(=O)n2C (stereo not drawn) [Example 388, 1-((4-chloro-1H-indol-2-yl)methyl)-8-(hydroxy(phenyl)methyl)-3,7-dimethyl-1H-purine-2,6(3H,7H)-dione] | 10 to 1000
Cc1cccc2[nH]c(Cn3c(=O)c4c(nc(N[C@H]5C[C@H](CO)C5)n4C)n(C)c3=O)cc12 [Example 327, 8-((1R,3R)-3-(hydroxymethyl)cyclobutylamino)-3,7-dimethyl-1-((4-methyl-1H-indol-2-yl)methyl)-1H-purine-2,6(3H,7H)-dione] | 10 to 1000
Cc1ccc2c(c1)cc(Cn1c(=O)c3c(ncn3C)n(C)c1=O)n2C [Example 233, 1-((1,5-dimethyl-1H-indol-2-yl)methyl)-3,7-dimethyl-1H-purine-2,6(3H,7H)-dione] | 5000 to 10000
Cn1c(N[C@H]2C[C@H](CO)C2)nc2c1c(=O)n(Cc1cc3ccccc3[nH]1)c(=O)n2C [Example 295, 1-((1H-indol-2-yl)methyl)-8-((1R,3R)-3-(hydroxymethyl)cyclobutylamino)-3,7-dimethyl-1H-purine-2,6(3H,7H)-dione] | 10 to 1000
Cn1c(N[C@@H]2CCCNC2=O)nc2c1c(=O)n(Cc1cc3ccccc3[nH]1)c(=O)n2C [Example 221, (R)-1-((1H-indol-2-yl)methyl)-3,7-dimethyl-8-(2-oxopiperidin-3-ylamino)-1H-purine-2,6(3H,7H)-dione] | 1000 to 5000
Cn1c(Nc2ccncc2)nc2c1c(=O)n(Cc1cc3c(-c4ccccc4)cccc3[nH]1)c(=O)n2C [Example 374, 3,7-dimethyl-1-((4-phenyl-1H-indol-2-yl)methyl)-8-(pyridin-4-ylamino)-1H-purine-2,6(3H,7H)-dione] | > 10000
Cn1c(NC2CCNC2=O)nc2c1c(=O)n(Cc1cc3ccccc3[nH]1)c(=O)n2C (racemic) [Example 222, (±)-1-((1H-indol-2-yl)methyl)-3,7-dimethyl-8-(2-oxopyrrolidin-3-ylamino)-1H-purine-2,6(3H,7H)-dione] | 10 to 1000
Cc1ccc2[nH]c(Cn3c(=O)c4c(nc(-n5nccc5N)n4C)n(C)c3=O)cc2c1 [Example 218, 8-(5-amino-1H-pyrazol-1-yl)-3,7-dimethyl-1-((5-methyl-1H-indol-2-yl)methyl)-1H-purine-2,6(3H,7H)-dione] | 10 to 1000
Cn1c(Cn2c(=O)c3c(nc(N[C@H]4CC[C@@H](O)C4)n3C)n(C)c2=O)cc2cc(Cl)ccc21 (racemic) [Example 178, (±)-1-((5-chloro-1-methyl-1H-indol-2-yl)methyl)-8-((cis)-3-hydroxycyclopentylamino)-3,7-dimethyl-1H-purine-2,6(3H,7H)-dione] | 10 to 1000
Cn1c(N2CCC(O)CC2)nc2c1c(=O)n(Cc1cc3cc(Cl)ccc3[nH]1)c(=O)n2C [Example 198, 1-((5-chloro-1H-indol-2-yl)methyl)-8-(4-hydroxypiperidin-1-yl)-3,7-dimethyl-1H-purine-2,6(3H,7H)-dione] | 10 to 1000
Cn1c(N[C@@H]2CCCC[C@H]2O)nc2c1c(=O)n(Cc1ccc(C(F)(F)F)cc1)c(=O)n2C [Example 113, 8-((1R,2R)-2-hydroxycyclohexylamino)-3,7-dimethyl-1-(4-(trifluoromethyl)benzyl)-1H-purine-2,6(3H,7H)-dione] | > 10000
Cn1c(C2CNCCO2)nc2c1c(=O)n(Cc1cc3c(Cl)cccc3[nH]1)c(=O)n2C (stereo not drawn) [Example 453, 1-[(4-chloro-1H-indol-2-yl)methyl]-3,7-dimethyl-8-morpholin-2-yl-purine-2,6-dione] | 10 to 1000
Cn1c(CCN2CCOCC2)nc2c1c(=O)n(Cc1cc3cc(Cl)ccc3[nH]1)c(=O)n2C [Example 229, 1-((5-chloro-1H-indol-2-yl)methyl)-3,7-dimethyl-8-(2-morpholinoethyl)-1H-purine-2,6(3H,7H)-dione] | 10 to 1000

Continued, values first:

IC50 [nM] | Compound
1000 to 5000 | Cn1c(NCc2cnccn2)nc2c1c(=O)n(Cc1ccc(Cl)c(Cl)c1)c(=O)n2C [Example 116, 1-(3,4-dichlorobenzyl)-3,7-dimethyl-8-(pyrazin-2-ylmethylamino)-1H-purine-2,6(3H,7H)-dione]
1000 to 5000 | Cn1c(Nc2ccnc([C@@H]3C[C@H]3CO)c2)nc2c1c(=O)n(Cc1ccc(Cl)c(Cl)c1)c(=O)n2C (single isomer, unassigned) [Example 337, 1-(3,4-dichlorobenzyl)-8-((2-((1R,2R)-2-(hydroxymethyl)cyclopropyl)pyridin-4-yl)amino)-3,7-dimethyl-1H-purine-2,6(3H,7H)-dione or 1-(3,4-dichlorobenzyl)-8-((2-((1S,2S)-2-(hydroxymethyl)cyclopropyl)pyridin-4-yl)amino)-3,7-dimethyl-1H-purine-2,6(3H,7H)-dione]
10 to 1000 | Cc1ccc2cc(Cn3c(=O)c4c(nc(Nc5ccncc5)n4C)n(C)c3=O)[nH]c2c1 [Example 326, 3,7-dimethyl-1-((6-methyl-1H-indol-2-yl)methyl)-8-(pyridin-4-ylamino)-1H-purine-2,6(3H,7H)-dione]
5000 to 10000 | Cn1c(Cn2c(=O)c3c(nc(Nc4cccnn4)n3C)n(C)c2=O)cc2cc(Cl)ccc21 [Example 203, 1-((5-chloro-1-methyl-1H-indol-2-yl)methyl)-3,7-dimethyl-8-(pyridazin-3-ylamino)-1H-purine-2,6(3H,7H)-dione]
10 to 1000 | Cn1c(Nc2cccc(C(=O)O)c2)nc2c1c(=O)n(Cc1ccc(Cl)c(Cl)c1)c(=O)n2C [Example 286, 3-((1-(3,4-dichlorobenzyl)-3,7-dimethyl-2,6-dioxo-2,3,6,7-tetrahydro-1H-purin-8-yl)amino)benzoic acid]
10 to 1000 | Cn1c(Nc2cccc(CCC(N)=O)n2)nc2c1c(=O)n(Cc1ccc(Cl)c(Cl)c1)c(=O)n2C [Example 292, 3-(6-(1-(3,4-dichlorobenzyl)-3,7-dimethyl-2,6-dioxo-2,3,6,7-tetrahydro-1H-purin-8-ylamino)pyridin-2-yl)propanamide]
10 to 1000 | Cn1c(Nc2cccnn2)nc2c1c(=O)n(Cc1cc3ccccc3[nH]1)c(=O)n2C [Example 201, 1-((1H-indol-2-yl)methyl)-3,7-dimethyl-8-(pyridazin-3-ylamino)-1H-purine-2,6(3H,7H)-dione]
10 to 1000 | Cn1c(N[C@H]2CCCOC2)nc2c1c(=O)n(Cc1ccc(Cl)c(Cl)c1)c(=O)n2C [Example 46, 1-[(3,4-dichlorophenyl)methyl]-3,7-dimethyl-8-{[(3S)-oxan-3-yl]amino}-2,3,6,7-tetrahydro-1H-purine-2,6-dione]
5000 to 10000 | CCOC(=O)Cc1nc2c(c(=O)n(Cc3ccc(Cl)c(Cl)c3)c(=O)n2C)n1C [Example 162, ethyl 2-(1-(3,4-dichlorobenzyl)-3,7-dimethyl-2,6-dioxo-2,3,6,7-tetrahydro-1H-purin-8-yl)acetate]
10 to 1000 | Cn1c(Nc2cnccn2)nc2c1c(=O)n(Cc1ccc(Cl)c(Cl)c1)c(=O)n2C [Example 126, 1-(3,4-dichlorobenzyl)-3,7-dimethyl-8-(pyrazin-2-ylamino)-1H-purine-2,6(3H,7H)-dione]
10 to 1000 | CC(=O)NCc1nccc(Nc2nc3c(c(=O)n(Cc4cc5c(Cl)cccc5[nH]4)c(=O)n3C)n2C)n1 [Example 451, N-((4-(1-((4-chloro-1H-indol-2-yl)methyl)-3,7-dimethyl-2,6-dioxo-2,3,6,7-tetrahydro-1H-purin-8-ylamino)pyrimidin-2-yl)methyl)acetamide]
1000 to 5000 | Cn1c(N[C@H]2CC[C@@H](N)CC2)nc2c1c(=O)n(Cc1ccc(Cl)c(Cl)c1)c(=O)n2C [Example 39, (±)-1-[(3,4-dichlorophenyl)methyl]-3,7-dimethyl-8-{[(cis)-4-aminocyclohexyl]amino}-2,3,6,7-tetrahydro-1H-purine-2,6-dione]
1000 to 5000 | Cn1c(CCO)nc2c1c(=O)n(Cc1cc3cc(Cl)ccc3[nH]1)c(=O)n2C [Example 223, 1-((5-chloro-1H-indol-2-yl)methyl)-8-(2-hydroxyethyl)-3,7-dimethyl-1H-purine-2,6(3H,7H)-dione]
1000 to 5000 | CN(C)C1CCCC(Nc2nc3c(c(=O)n(Cc4ccc(Cl)c(Cl)c4)c(=O)n3C)n2C)C1 (racemic) [Example 84, (±)-1-(3,4-dichlorobenzyl)-8-(((cis)-3-(dimethylamino)cyclohexyl)amino)-3,7-dimethyl-3,7-dihydro-1H-purine-2,6-dione or (±)-1-(3,4-dichlorobenzyl)-8-(((trans)-3-(dimethylamino)cyclohexyl)amino)-3,7-dimethyl-3,7-dihydro-1H-purine-2,6-dione]
10 to 1000 | Cn1c(N[C@H]2CCCC[C@@H]2O)nc2c1c(=O)n(Cc1ccc(Cl)c(Cl)c1)c(=O)n2C (racemic) [Example 91, (±)-1-[(3,4-dichlorophenyl)methyl]-8-{[(trans)-2-hydroxycyclohexyl]amino}-3,7-dimethyl-2,3,6,7-tetrahydro-1H-purine-2,6-dione±]
10 to 1000 | Cn1c(Nc2ccnc(CNC(N)=O)n2)nc2c1c(=O)n(Cc1cc3c(Cl)cccc3[nH]1)c(=O)n2C [Example 462, 1-((4-(1-((4-chloro-1H-indol-2-yl)methyl)-3,7-dimethyl-2,6-dioxo-2,3,6,7-tetrahydro-1H-purin-8-ylamino)pyrimidin-2-yl)methyl)urea]
